Experimental data reported in patent US20250129430A1, “HIGH ATP-AFFINITY PROTEIN AS THERAPEUTIC TARGET FOR INTRACTABLE CANCER MOLECULAR SUBTYPES AND INHIBITOR THEREOF” (VeraVerse Co., Ltd., priority 2021, published 2025).

Legend:
Experiment in all cases: Cell viability drug screen, 12-point dose-response AUC
Type in all cases: cell-based, human
FU97 = test system: FU97; design: Average Area Under the Viability Curve (AUC), AUC norm value: scale not given here; details: FU97 cells, 72 hours
Outline: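 Trapezoidal AUC of a 12-point, DMSO-normalized dose-response curve. Luminescent viability was measured after 72 h of exposure at 37° C to half-log serial dilutions (0.5% DMSO control), dosed 24 h after plating FU97 cells at 5×10^3 per well.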

SNU216 = details: 72 hours; for Average Area Under the Viability Curve (AUC), AUC norm value: SNU216 cells (non-SEM subtype)
Outline: (§1)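 Each cell line receives a twelve-point half-log titration of drug beginning 24 h after plating 5×10^3 cells per well. Following 72 h culture at 37 °C, luminescent signal is recorded and expressed versus vehicle. AUC is derived by the trapezoidal method.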

SNU1967 = SNU1967 cells, 72 hours
Outline: (§2)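 Luminescent viability readings, taken 15 min after reagent addition at room temperature, were normalized to the 0.5% DMSO control to build 12-point dose-response curves. Trapezoidal integration gave the AUC. Cells had been plated at 5×10^3 per well and then exposed to half-log dilutions for 72 h.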

SNU638 = SNU638 cells, 72 hours
Outline: as §2

NCI_N87 = NCI_N87 cells, 72 hours
Outline: as §2

YCC2 = YCC2 cells, 72 hours
Outline: as §2

MKN28 = MKN28 cells, 72 hours
Outline: as §2

NCC24 = NCC24 cells, 72 hours
Outline: as §2

SK4 = details: 72 hours; for Average Area Under the Viability Curve (AUC), AUC norm value: SK4 cells (SEM subtype)
Outline: as §2

MKN45 = details: 72 hours; for Average Area Under the Viability Curve (AUC), AUC norm value: MKN45 cells (non-SEM subtype)
Outline: as §1

SNU484 = details: 72 hours; for Average Area Under the Viability Curve (AUC), AUC norm value: SNU484 cells (SEM subtype)
Outline: as §2

MKN74 = MKN74 cells, 72 hours
Outline: as §1

MKN1 = MKN1 cells, 72 hours
Outline: as §2

OCUM1 = OCUM1 cells, 72 hours
Outline: as §2

SNU16 = SNU16 cells, 72 hours
Outline: as §2

SNU1 = SNU1 cells, 72 hours
Outline: as §2

NCC19 = NCC19 cells, 72 hours
Outline: as §2

SNU620 = SNU620 cells, 72 hours
Outline: as §2

SNU601 = SNU601 cells, 72 hours
Outline: as §2

YCC3 = YCC3 cells, 72 hours
Outline: as §2

AGS = details: 72 hours; for Average Area Under the Viability Curve (AUC), AUC norm value: AGS cells (non-SEM subtype)
Outline: as §1

KATO3 = KATO3 cells, 72 hours
Outline: as §2

YCC11 = details: 72 hours; for Average Area Under the Viability Curve (AUC), AUC norm value: YCC11 cells (SEM subtype)
Outline: as §2

NCC59 = NCC59 cells, 72 hours
Outline: as §2

Hs746T = details: 72 hours; for Average Area Under the Viability Curve (AUC), AUC norm value: Hs746T cells (SEM subtype)
Outline: as §2

NCC20 = NCC20 cells, 72 hours
Outline: as §2

SNU719 = SNU719 cells, 72 hours
Outline: as §1

SNU668 = details: 72 hours; for Average Area Under the Viability Curve (AUC), AUC norm value: SNU668 cells (SEM subtype)
Outline: as §2

SNU1750 = details: 72 hours; for Average Area Under the Viability Curve (AUC), AUC norm value: SNU1750 cells (SEM subtype)
Outline: as §2

Question: Which “Average Area Under the Viability Curve (AUC), AUC norm value” (“Average Area Under the Viability Curve” for short) (FU97) does the source give for `CC(C)n1nc(-c2ccc3oc(N)nc3c2)c2c(N)ncnc21` [INK 128 (MLN0128), INK 128] here?
Answer: Its value is −2.857.

Question: And the “Average Area Under the Viability Curve” value (SNU216)?
Answer: The value was −0.9082.

Question: And the “Average Area Under the Viability Curve” value (SNU1967)?
Answer: The value was −0.4728.

Question: What about the “Average Area Under the Viability Curve” value (SNU638) of the same molecule?
Answer: Its value is 0.2387.

Question: What about the “Average Area Under the Viability Curve” value (NCI_N87) of the same molecule?
Answer: Its value is 0.7081.

Question: What about the “Average Area Under the Viability Curve” value (YCC2) of the same molecule?
Answer: Its value is 0.

Question: And the “Average Area Under the Viability Curve” value (MKN28)?
Answer: The value was 1.195.

Question: And the “Average Area Under the Viability Curve” value (NCC24)?
Answer: Its value is 0.7502.

Question: And the “Average Area Under the Viability Curve” value (SK4)?
Answer: Its value is −2.931.

Question: What about the “Average Area Under the Viability Curve” value (MKN45) of the same molecule?
Answer: The value was −0.5935.

Question: What about the “Average Area Under the Viability Curve” value (SNU484) of the same molecule?
Answer: Its value is −1.089.

Question: And the “Average Area Under the Viability Curve” value (MKN74)?
Answer: The value was −0.4883.

Question: What about the “Average Area Under the Viability Curve” value (MKN1) of the same molecule?
Answer: The value was −0.7444.

Question: What about the “Average Area Under the Viability Curve” value (OCUM1) of the same molecule?
Answer: The value was 0.03105.

Question: What about the “Average Area Under the Viability Curve” value (SNU16) of the same molecule?
Answer: The value was −0.8733.

Question: What about the “Average Area Under the Viability Curve” value (SNU1) of the same molecule?
Answer: The value was 1.281.

Question: And the “Average Area Under the Viability Curve” value (NCC19)?
Answer: Its value is 0.3022.

Question: And the “Average Area Under the Viability Curve” value (SNU620)?
Answer: The value was 0.08832.

Question: What about the “Average Area Under the Viability Curve” value (SNU601) of the same molecule?
Answer: The value was 1.346.

Question: What about the “Average Area Under the Viability Curve” value (YCC3) of the same molecule?
Answer: Its value is 0.8535.

Question: What about the “Average Area Under the Viability Curve” value (AGS) of the same molecule?
Answer: Its value is −1.244.

Question: And the “Average Area Under the Viability Curve” value (KATO3)?
Answer: The value was 1.633.

Question: What about the “Average Area Under the Viability Curve” value (YCC11) of the same molecule?
Answer: Its value is −2.648.

Question: And the “Average Area Under the Viability Curve” value (NCC59)?
Answer: Its value is 1.541.

Question: What about the “Average Area Under the Viability Curve” value (Hs746T) of the same molecule?
Answer: Its value is −1.821.

Question: What about the “Average Area Under the Viability Curve” value (NCC20) of the same molecule?
Answer: Its value is −2.568.

Question: What about the “Average Area Under the Viability Curve” value (SNU719) of the same molecule?
Answer: Its value is 3.8255.

Question: What about the “Average Area Under the Viability Curve” value (SNU668) of the same molecule?
Answer: Its value is 1.085.

Question: And the “Average Area Under the Viability Curve” value (SNU1750)?
Answer: Its value is −1.079.

Question: What does the source list for `Cn1cc(CNCC2CCN(c3ncc(C(=O)NO)cn3)CC2)c2ccccc21` [JNJ-26481585]?
Answer: Average Area Under the Viability Curve (AUC), AUC norm value (FU97): −0.6324; Average Area Under the Viability Curve (AUC), AUC norm value (SNU216): 0.3424; Average Area Under the Viability Curve (AUC), AUC norm value (SNU1967): −1.0365; Average Area Under the Viability Curve (AUC), AUC norm value (SNU638): 0.1995; Average Area Under the Viability Curve (AUC), AUC norm value (NCI_N87): −0.2649; Average Area Under the Viability Curve (AUC), AUC norm value (YCC2): −0.1018; Average Area Under the Viability Curve (AUC), AUC norm value (MKN28): −0.5312; Average Area Under the Viability Curve (AUC), AUC norm value (NCC24): −1.592; Average Area Under the Viability Curve (AUC), AUC norm value (SK4): −0.3258; Average Area Under the Viability Curve (AUC), AUC norm value (MKN45): 2.743; Average Area Under the Viability Curve (AUC), AUC norm value (SNU484): 0; Average Area Under the Viability Curve (AUC), AUC norm value (MKN74): −0.06428; Average Area Under the Viability Curve (AUC), AUC norm value (MKN1): 0.558; Average Area Under the Viability Curve (AUC), AUC norm value (OCUM1): 0.02955; Average Area Under the Viability Curve (AUC), AUC norm value (SNU16): −0.7883; Average Area Under the Viability Curve (AUC), AUC norm value (SNU1): −0.984; Average Area Under the Viability Curve (AUC), AUC norm value (NCC19): 0.3912; Average Area Under the Viability Curve (AUC), AUC norm value (SNU620): −1.2467; Average Area Under the Viability Curve (AUC), AUC norm value (SNU601): 1.501; Average Area Under the Viability Curve (AUC), AUC norm value (YCC3): 0.3561; Average Area Under the Viability Curve (AUC), AUC norm value (AGS): −1.073; Average Area Under the Viability Curve (AUC), AUC norm value (KATO3): 0.3482; Average Area Under the Viability Curve (AUC), AUC norm value (YCC11): 0.08841; Average Area Under the Viability Curve (AUC), AUC norm value (NCC59): 3.687; Average Area Under the Viability Curve (AUC), AUC norm value (Hs746T): 0.2906; Average Area Under the Viability Curve (AUC), AUC norm value (NCC20): −1.396; Average Area Under the Viability Curve (AUC), AUC norm value (SNU719): 3.527; Average Area Under the Viability Curve (AUC), AUC norm value (SNU668): 1.486; Average Area Under the Viability Curve (AUC), AUC norm value (SNU1750): −0.8596

Question: With `CC(C)C[C@H](NC(=O)CNC(=O)c1cc(Cl)ccc1Cl)B(O)O` [MLN2238] as the molecule, how does the “area under the viability curve (AUC), normalized” value (“area … normalized” for short) (FU97; 12-point dose-response) read?
Answer: The value was 0.

Question: What about the “area … normalized” value (SNU216; SNU216 cells, 12-point dose-response) of the same molecule?
Answer: The value was 0.2331.

Question: And the “area … normalized” value (SNU1967; 12-point dose-response)?
Answer: Its value is −1.676.

Question: What about the “area … normalized” value (SNU638; 12-point dose-response) of the same molecule?
Answer: The value was −0.5736.

Question: And the “area … normalized” value (NCI_N87; 12-point dose-response)?
Answer: The value was 1.708.

Question: What about the “area … normalized” value (YCC2; 12-point dose-response) of the same molecule?
Answer: Its value is 0.04339.

Question: What about the “area … normalized” value (MKN28; 12-point dose-response) of the same molecule?
Answer: Its value is 0.5257.

Question: And the “area … normalized” value (NCC24; 12-point dose-response)?
Answer: The value was −1.21.

Question: What about the “area … normalized” value (SK4; SK4 cells, 12-point dose-response) of the same molecule?
Answer: The value was 0.5584.

Question: What about the “area … normalized” value (MKN45; MKN45 cells, 12-point dose-response) of the same molecule?
Answer: The value was 0.4006.

Question: What about the “area … normalized” value (SNU484; SNU484 cells, 12-point dose-response) of the same molecule?
Answer: Its value is −0.4125.

Question: What about the “area … normalized” value (MKN74; 12-point dose-response) of the same molecule?
Answer: Its value is −0.2214.

Question: And the “area … normalized” value (MKN1; 12-point dose-response)?
Answer: Its value is 0.3958.

Question: What about the “area … normalized” value (OCUM1; 12-point dose-response) of the same molecule?
Answer: The value was 2.118.

Question: And the “area … normalized” value (SNU16; 12-point dose-response)?
Answer: Its value is 0.7701.

Question: And the “area … normalized” value (SNU1; 12-point dose-response)?
Answer: The value was −0.5037.

Question: And the “area … normalized” value (NCC19; 12-point dose-response)?
Answer: Its value is −0.8166.

Question: And the “area … normalized” value (SNU620; 12-point dose-response)?
Answer: The value was −0.9643.

Question: What about the “area … normalized” value (SNU601; 12-point dose-response) of the same molecule?
Answer: Its value is −0.2758.

Question: What about the “area … normalized” value (YCC3; 12-point dose-response) of the same molecule?
Answer: The value was 2.808.

Question: What about the “area … normalized” value (AGS; AGS cells, 12-point dose-response) of the same molecule?
Answer: The value was −0.8012.

Question: What about the “area … normalized” value (KATO3; 12-point dose-response) of the same molecule?
Answer: Its value is 0.7115.

Question: What about the “area … normalized” value (YCC11; YCC11 cells, 12-point dose-response) of the same molecule?
Answer: The value was −1.695.

Question: And the “area … normalized” value (NCC59; 12-point dose-response)?
Answer: The value was 0.318.

Question: What about the “area … normalized” value (Hs746T; Hs746T cells, 12-point dose-response) of the same molecule?
Answer: Its value is −1.189.

Question: What about the “area … normalized” value (NCC20; 12-point dose-response) of the same molecule?
Answer: The value was −1.247.

Question: What about the “area … normalized” value (SNU719; 12-point dose-response) of the same molecule?
Answer: The value was 0.4168.

Question: And the “area … normalized” value (SNU668; SNU668 cells, 12-point dose-response)?
Answer: Its value is 1.1951.

Question: And the “area … normalized” value (SNU1750; SNU1750 cells, 12-point dose-response)?
Answer: Its value is −1.896.
